Test results: US10072021B2, “Compound for inhibiting binding between DX2 protein and P14/ARF protein, and pharmaceutical composition for treating or preventing cancer disease containing same as effective ingredient” (PUSAN NATIONAL UNIVERSITY INDUSTRY-UNIVERSITY COOPERATION …, priority 2014, dated 2018)
“Also recorded” adds a separate entry of the source.

Experiments:
DX2-p14/ARF binding = biological target: T1, DX2-p14/ARF binding (Homo sapiens, UniProt Q13155); assay: GST pull-down assay of DX2-p14/ARF binding; settings: FIG. 2A, 3A, 3D, 3E
T1 construct: made in house; host or cells: E. coli BL21(DE3) for GST-p14/ARF; DX2 from 'cell lysate or recombinant protein'
T1 sequence (Q13155 1-251 isoform Q13155-2): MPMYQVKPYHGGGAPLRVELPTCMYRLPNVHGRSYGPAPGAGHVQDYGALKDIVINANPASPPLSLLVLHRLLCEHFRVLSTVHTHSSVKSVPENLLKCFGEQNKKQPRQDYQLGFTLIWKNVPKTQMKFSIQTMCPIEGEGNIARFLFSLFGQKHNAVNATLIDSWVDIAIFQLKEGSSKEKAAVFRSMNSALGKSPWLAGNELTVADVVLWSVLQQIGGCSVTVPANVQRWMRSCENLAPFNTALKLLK
From the text: (§1) Through GST pull-down assays, more specific binding inhibitors were selected among the previously screened candidate drugs as DX2-p14/ARF binding inhibitors. That is, a p14/ARF fragment (full-length) was ligated into EcoRI and Hind II sites of pGEX-TEV vector, which is a modified vector by adding a TEV protease cleavage site to pGEX-4T1. The recombinant proteins were then expressed in E. coli strain BL21(DE3) as GST-fusion proteins. The proteins were purified by glutathione affinity chromatography.
(§2) To address direct binding between the two proteins, agarose-bead conjugated GST (negative control) or GST-target protein was incubated with cell lysate or recombinant protein in radioimmunoprecipitation assay (RIPA) buffer (NaCl, 25 mM Tris-Cl, 1% NP-40, 1% sodium deoxycholate, 0.1% SDS, protease inhibitor mixture) for 1 hour at a temperature of 4° C. for a reaction.

DX2-AIMP2 binding = biological target: T2, DX2-AIMP2 binding (Homo sapiens, UniProt Q13155); assay: Protein binding assay using His-DX2 protein; settings: FIG. 2C
T2 sequence (Q13155 1-251 isoform Q13155-2): T1 sequence (Q13155 1-251 isoform Q13155-2)
Experimental: Here, contransfected 293 cells were allowed to react with MG132 before immunoprecipitation analysis to prevent reduction of two proteins, and after performing SLCB050 treatment (10 μM, 6 hours), immunoprecipitation assay was performed on the cells by using Myc antibodies (DX2).
as §2

p53-AIMP2 or DX2 binding = assay: GST pull-down assay, selectivity: p53-AIMP2 or DX2 binding; settings: FIG. 3B
From the text: as §1, §2

DX2 and p14/ARF = assay: Localization and levels of DX2 and p14/ARF in cells after treatment (western blot); type: cell-based, human
[1] = test system: human lung cancer cell lines; assay: MTT viability of various human lung cancer cell lines; type: cell-based; settings: 24 hours, MTT assay, FIG. 5
Experimental: (§3) By MTT assay, anticancer effects were confirmed based on viability of tumor cells. That is, cells were incubated in 0.5 mg/ml of MTT solution for 4 hours at a temperature of 37° C. for a reaction, and then, formazen products formed therefrom were dissolved in dimethyl sulfoxide (DMSO). Then, absorbance thereof was measured at 540 nm by using a spectrometer.

[2] = test system: H128 cells (SCLC cell line); assay: MTT viability of H128 cells; type: cell-based, human; settings: MTT assay, FIG. 7
Experimental: as §3

H69 and H322 cells = assay: Sensitivity of lung cancer cell lines to combinational treatment with Adriamycin and SLCB050; type: cell-based, human; settings: combinational treatment with Adriamycin, FIG. 8C
Experimental: as §3

H446 xenograft = test system: H446 xenograft
Experimental: DK (5 month-old, N=6) mice were administered with carrier, SLCB050 (5 or 10 mg/kg), Adriamycin (1, 2.5, or 5 mg/kg), and a combination of SLCB050 and Adriamycin by intraperitoneal (i.p.) injection. After termination of the experiment of each group, mice were dissected and isolated lung tissues. For xenograft, 1×10^7 H446 cells (ATCC) were seeded in nude ice. After 4 weeks, tumor bearing mice were injected with Adriamycin, […], or a combination thereof for 6 weeks. Every weeks, tumor volume and body weight were measured.

lung tumors of DK mice = assay: In vivo anticancer effect in DK mice (lung tumors)
Experimental: All experimental procedures using laboratory animals were approved by the animal care committee of Pusan National University. DX2 (C57/BL6) and K-RasLA2 (C57/BL6) mice were obtained from Dr. Kim, Sung-Hoon and Professor. Choi, Kang-Ryeol (Yonsei University), respectively, and double Tg mice were obtained by cross-breeding of DX2 and K-RasLA2 mice. Before experiment, all mice were maintained under temperature- and light-controlled conditions (20-23° C., 12 h/12 h light/dark cycle), and provided autoclaved food and water.
Every weeks, tumor volume and body weight were measured.
After dissection of mice, tissues were fixed using 10% formalin (in PBS) for 24 hours, and embedded in paraffin blocks according to a basic tissue processing procedure. For histological analysis, embedded tissues were cut for […] by Leica microtome (Wetzlar, Germany) and transferred onto adhesive-coated slides (Marienfeld laboratory glassware, Germany). After deparaffin and rehydration, sections were then stained with H&E for routine examination.
For IHC staining, rehydrated tissue sections were incubated with antibodies to Ki-67 (Abcam, ab15580), pan-keratin (Sigma, C2931), pro-surfactant C (Millipore, AB3786), NSE (DAKO, IS612), and HER2/Neu (DAKO, A0458) for a reaction. Antigen retrieval was performed using 10 mM sodium citrate (pH 6.0) twice at a temperature of 95° C. for 10 minutes each, and endogenous peroxidase activity was blocked with 3% […] for 10 min. Then, the slides were dehydrated following a standard procedure and sealed with cover glass using mounting solution. TUNEL reaction was done as described in the manual for In Situ Cell Death Detection Kit, POD (Hoffmann-La Roche Ltd, Basel, Swizerland).
To evaluate tumor incidence, lung tissues of each mouse was fixed and embedded in paraffin. 5 sections from each mouse were examined by 3 independent investigator, who counted tumor. In addition, tumor area was calculated by tumor occupied area in total lung area using photoshop software.

CC1(C)Oc2cc3oc(=O)ccc3cc2C[C@@H]1OC(=O)/C=C/c1ccco1 [SLCB050, (7S)-(+)-3-(2-Furanyl)-acrylic acid, 8,8-dimethyl-2-oxo-6,7-dihydro-2H,8H-pyrano[3,2-g]chromen-7-yl-ester]
inhibitory effect on DX2-p14/ARF binding (DX2-p14/ARF binding): completely blocked; also recorded: showed inhibitory effects on DX2-p14/ARF binding
binding between DX2 and AIMP2 (DX2-AIMP2 binding): binding between DX2 and AIMP2 was reduced
inhibition of p53-AIMP2 or DX2 binding (p53-AIMP2 or DX2 binding): not on p53-AIMP2 or DX2 binding
localization of DX2 and p14/ARF (DX2 and p14/ARF; 10 μM, 6 hours, nucleoplasm, FIG. 4B): DX2 was decreased and p14/ARF was increased in the nucleoplasm
DX2 and p14/ARF levels (DX2 and p14/ARF; NSCLC cell line H1299 and SCLC cell line H69, FIG. 4C): decreases DX2, but increases p14/ARF
DX2 levels in p14/ARF-deficient cells (DX2 and p14/ARF; p14/ARF-deficient H322 cells (H322, H460, A549), FIG. 4D): reduction of DX2; also recorded: DX2 levels decreased considerably
viability of SCLC cells [1]: very sensitive
viability of p14/ARF-deficient cell lines [1]: resistant
viability of H128 cells [2]: reduced the viability of H128 cells in a dose-dependent manner
sensitivity to Adriamycin in SCLC cell line H69 (H69 and H322 cells): sensitivity to Adriamycin improved
sensitivity to Adriamycin in p14/ARF-deficient H322 cells (H69 and H322 cells): did not show improved sensitivity
tumor growth, combination (H446 xenograft; SLCB050 10 mg/kg with low dose Adriamycin 2.5 mg/kg, FIG. 9B): more obvious anticancer effect; also recorded: obviously suppressed tumor growth
tumor volume, SLCB050 alone (H446 xenograft; SLCB050 10 mg/kg, three times/week, FIG. 9B): moderately suppressed
response of H446 xenograft model (H446 xenograft; single agents, FIG. 9A): partially responded
weight loss, combination (lung tumors of DK mice; DK mice, SLCB050 10 mg/kg and Adriamycin 2.5 mg/kg): without significant weight loss
tumor progression, combination (lung tumors of DK mice; DK mice, SLCB050 10 mg/kg and Adriamycin 2.5 mg/kg, i.p., FIG. 10B, 10C): significantly suppressed tumor progression; also recorded: induced tumor regression
DX2 level in vivo (western blot) (lung tumors of DK mice; DK mice, SLCB050 treatment, FIG. 12A): reduction of DX2
tumor volumes, combination (lung tumors of DK mice; DK mice, combinational treatment with Adriamycin and SLCB050, FIG. 10C): reduced tumor volumes
SCLC regions in lung tissue (H-E staining), combination (lung tumors of DK mice; DK mice, combinational treatment with Adriamycin and SLCB050, FIG. 11): more obviously erased
apoptotic tumor cells (TUNEL staining) (lung tumors of DK mice; lung tissues of DK mice treated with Adriamycin and SLCB050 in combination, FIG. 12B, 12C): obviously increased apoptosis tumer cells
